How the values were obtained:
Assay in all cases: relative viability (nuclei count vs DMSO), 5 days (fraction); higher = more cells survive
Ispinesib + Pemetrexed = compound: Cc1ccc(C(=O)N(CCCN)[C@@H](c2nc3cc(Cl)ccc3c(=O)n2Cc2ccccc2)C(C)C)cc1 [Ispinesib] + Nc1nc2[nH]cc(CCc3ccc(C(=O)N[C@@H](CCC(=O)O)C(=O)O)cc3)c2c(=O)[nH]1 [Pemetrexed] (partner 0.2 µM)
Outline: (§1)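 Medians of duplicate plates are given as relative viability. That measure is the nuclei count in treated wells divided by the count in vehicle wells. Counts were taken on 4× images of lung cancer cell lines in 1536-well plates, 5 days after pin-tool dosing the day after seeding with one drug alone or a fixed anchor-drug dose plus five library-drug doses (not always all listed) in √10 steps.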

Linsitinib + Phenformin = compound: C[C@]1(O)C[C@@H](c2nc(-c3ccc4ccc(-c5ccccc5)nc4c3)c3c(N)nccn32)C1 [Linsitinib] + N=C(N)NC(=N)NCCc1ccccc1 [Phenformin] (partner 250 µM)
Outline: as §1

Linsitinib + Crizotinib = compound: C[C@]1(O)C[C@@H](c2nc(-c3ccc4ccc(-c5ccccc5)nc4c3)c3c(N)nccn32)C1 [Linsitinib] + C[C@@H](Oc1cc(-c2cnn(C3CCNCC3)c2)cnc1N)c1c(Cl)ccc(F)c1Cl [Crizotinib] (partner 1 µM)
Outline: as §1

Linsitinib + Lapatinib = compound: C[C@]1(O)C[C@@H](c2nc(-c3ccc4ccc(-c5ccccc5)nc4c3)c3c(N)nccn32)C1 [Linsitinib] + CS(=O)(=O)CCNCc1ccc(-c2ccc3ncnc(Nc4ccc(OCc5cccc(F)c5)c(Cl)c4)c3c2)o1 [Lapatinib] (partner 2 µM)
Outline: as §1

Which relative viability (Ispinesib + Pemetrexed; first compound 0.001 µM) does the source give for UMC-11 here?
Its relative viability is 0.844.

And the relative viability (Ispinesib + Pemetrexed; first compound 0.003162 µM)?
Its relative viability is 0.829.

What about the relative viability (Ispinesib + Pemetrexed; first compound 0.01 µM) of the same cell line?
Its relative viability is 0.868.

What about the relative viability (Ispinesib + Pemetrexed; first compound 0.03162 µM) of the same cell line?
Its relative viability is 0.451.

What about the relative viability (Ispinesib + Pemetrexed; first compound 0.1 µM) of the same cell line?
Its relative viability is 0.235.

And the relative viability (Linsitinib + Phenformin; first compound 0.01 µM)?
Its relative viability is 0.332.

What about the relative viability (Linsitinib + Phenformin; first compound 0.03162 µM) of the same cell line?
Its relative viability is 0.29.

And the relative viability (Linsitinib + Phenformin; first compound 0.1 µM)?
Its relative viability is 0.343.

And the relative viability (Linsitinib + Phenformin; first compound 1 µM)?
Its relative viability is 0.321.

What about the relative viability (Linsitinib + Crizotinib; first compound 0.01 µM) of the same cell line?
The relative viability was 0.698.

What about the relative viability (Linsitinib + Crizotinib; first compound 0.03162 µM) of the same cell line?
Its relative viability is 0.448.

What about the relative viability (Linsitinib + Crizotinib; first compound 0.1 µM) of the same cell line?
The relative viability was 0.642.

What about the relative viability (Linsitinib + Crizotinib; first compound 1 µM) of the same cell line?
Its relative viability is 0.549.

And the relative viability (Linsitinib + Lapatinib; first compound 0.01 µM)?
The relative viability was 0.889.

What about the relative viability (Linsitinib + Lapatinib; first compound 0.03162 µM) of the same cell line?
The relative viability was 0.871.

What about the relative viability (Linsitinib + Lapatinib; first compound 0.1 µM) of the same cell line?
The relative viability was 1.08.

What about the relative viability (Linsitinib + Lapatinib; first compound 0.3162 µM) of the same cell line?
Its relative viability is 0.303.

And the relative viability (Linsitinib + Lapatinib; first compound 1 µM)?
Its relative viability is 0.843.

From the supplement of paper PMC10307832
